Legend:
[1] = target: T1, Human CB1 receptor (hCB1) (Homo sapiens, UniProt P21554); assay: hCB1 receptor binding (3H-CP55,940 displacement); details: human CB1 receptor membranes
T1 construct: purchased Receptor Biology
Protocol: hCB1 and hCB2 Receptor Binding
Human CB1 receptor from Receptor Biology (hCB1) or human CB2 receptor from BioSignal (hCB2) membranes are thawed at 37° C., passed 3 times through a 25-gauge blunt-end needle, diluted in the cannabinoid binding buffer (50 mM Tris, 2.5 mM EDTA, 5 mM MgCl2, and 0.5 mg/mL BSA fatty acid free, pH 7.4) and aliquots containing the appropriate amount of protein are distributed into 96-well plates. The IC50 of the compounds of the invention at hCB1 and hCB2 are evaluated from 10-point dose-response curves done with ^3H-CP55,940 at 20000 to 25000 dpm per well (0.17-0.21 nM) in a final volume of 300 μl. The total and non-specific binding are determined in the absence and presence of 0.2 μM of HU210 respectively. The plates are vortexed and incubated for 60 minutes at room temperature, filtered through Unifilters GF/B (presoaked in 0.1% polyethyleneimine) with the Tomtec or Packard harvester using 3 mL of wash buffer (50 mM Tris, 5 mM MgCl2, 0.5 mg BSA pH 7.0). The filters are dried for 1 hour at 55° C. The radioactivity (cpm) is counted in a TopCount (Packard) after adding 65 μl/well of MS-20 scintillation liquid.
Based on the above assays, the dissociation constant (Ki) for a particular compound of the invention towards a particular receptor is determined using the following equation: […]

[2] = target: T1, Human CB1 receptor (hCB1); assay: hCB1 GTPγS binding; format: biochemical; details: human CB1 receptor membranes, GTPγ35S; for EC50: unit inferred; for Emax: maximal stimulated binding determined with 10 μM Win 55,212-2
Protocol: hCB1 and hCB2 GTPγS Binding
Human CB1 receptor from Receptor Biology (hCB1) or human CB2 receptor membranes (BioSignal) are thawed at 37° C., passed 3 times through a 25-gauge blunt-end needle and diluted in the GTPγS binding buffer (50 mM Hepes, 20 mM NaOH, 100 mM NaCl, 1 mM EDTA, 5 mM MgCl2, pH 7.4, 0.1% BSA). The EC50 and Emax of the compounds of the invention are evaluated from 10-point dose-response curves done in 300 μl with the appropriate amount of membrane protein and 100000-130000 dpm of GTPg^35S per well (0.11-0.14 nM). The basal and maximal stimulated binding is determined in absence and presence of 1 μM (hCB2) or 10 μM (hCB1) Win 55,212-2 respectively. The membranes are pre-incubated for 5 minutes with 56.25 μM (hCB2) or 112.5 μM (hCB1) GDP prior to distribution in plates (15 μM (hCB2) or 30 μM (hCB1) GDP final). The plates are vortexed and incubated for 60 minutes at room temperature, filtered on Unifilters GF/B (presoaked in water) with the Tomtec or Packard harvester using 3 ml of wash buffer (50 mM Tris, 5 mM MgCl2, 50 mM NaCl, pH 7.0). The filters are dried for 1 hour at 55° C. The radioactivity (cpm) is counted in a TopCount (Packard) after adding 65 μl/well of MS-20 scintillation liquid. Antagonist reversal studies are done in the same way except that (a) an agonist dose-response curve is done in the presence of a constant concentration of antagonist, or (b) an antagonist dose-response curve is done in the presence of a constant concentration of agonist.

T1 sequence (P21554 whole entry): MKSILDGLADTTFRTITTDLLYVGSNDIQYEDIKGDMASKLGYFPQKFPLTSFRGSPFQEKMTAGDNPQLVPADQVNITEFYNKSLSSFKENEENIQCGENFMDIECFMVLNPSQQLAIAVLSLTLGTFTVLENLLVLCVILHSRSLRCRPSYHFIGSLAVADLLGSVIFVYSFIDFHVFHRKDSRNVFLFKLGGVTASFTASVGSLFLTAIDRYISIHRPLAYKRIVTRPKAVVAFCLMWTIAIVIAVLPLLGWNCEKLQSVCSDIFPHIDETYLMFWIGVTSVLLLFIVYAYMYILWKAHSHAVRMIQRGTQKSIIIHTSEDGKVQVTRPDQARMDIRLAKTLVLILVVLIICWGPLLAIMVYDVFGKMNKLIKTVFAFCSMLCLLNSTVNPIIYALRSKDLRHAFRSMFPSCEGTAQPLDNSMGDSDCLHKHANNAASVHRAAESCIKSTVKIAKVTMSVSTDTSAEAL

Row | SMILES | Ki [1] [nM] | EC50 [2] [nM] | Emax [2] [%]
1 | CC(C)(C)c1nc2cc(C(=O)N3CCC(C(=O)NC4CC4)CC3)ccc2n1CC1CCC(F)(F)CC1 | 19.2 | 16.7 | 115
2 | CC(C)(C)c1nc2cc(C(=O)N3CCC(C(=O)NC4CC4)CC3)ccc2n1CC1CCCCC1 | 23.8 | 37.7 | 134
3 | Cc1cc(NC(=O)C2CCN(C(=O)c3ccc4c(c3)nc(C(C)(C)C)n4CC3CCC(F)(F)CC3)CC2)no1 | – | 1770 | 132

— US20100305140A1, “BENZIMIDAZOLE DERIVATIVES WHICH ARE TO BE USED AS ANTAGONIST FOR THE CB1-RECEPTOR” (AstraZeneca AB, priority 2006, published 2010)
